{"source": "patent US7223779B2", "about": "“Azasugar derivative and drug containing the same as the active ingredient” (Carna Biosciences Inc., priority 2002, dated 2007)", "key": {"[1]": {"test_system": "epidermal hyperplasia in mice induced by the application of TPA", "assay": "TPA-induced epidermal hyperplasia in mouse dorsal skin", "type": "in vivo", "conditions": "male BALB/c mice; applied to skin 5 min, 24 h and 48 h after TPA; doses 1, 10, 100 μg; skin excised at 72 h; FIG. 1", "experimental": "After backs of male BALB/c mice were shaved, 10 μL of a TPA-acetone solution (0.1 mM) was applied to the dorsal skin surface in an area of about 1 cm^2. In the medicine-treated group, a volume of 20 μL of a solution prepared by dissolving the test compound in acetone was applied to the same area 5 minutes, 24 hours and 48 hours after TPA application. In the non-treated group, only TPA was applied. In the control group, acetone was applied instead of the TPA-acetone solution.\nThe mice were sacrificed and the skin tissues were excised 72 hours after TPA application. Then the tissues were fixed with formalin, the vertical sections including the center of the TPA- or acetone-treated area were prepared and embedded in paraffin according to the conventional method. And they were stained by hematoxylin-eosin after removing paraffin. The epidermal thickness was measured using a microscope.\nIn FIG. 1, the numeral in the ordinate represents the epidermal thickness (μm). A bar graph of TPA (−) represents the epidermal thickness of the control group and a bar graph of TPA represents the epidermal thickness of the non-treated group. The respective bar graphs of 1, 10 and 100 denote the epidermal thickness of the group wherein the test compound is administered at a dose of 1, 10 and 100 (μg/wound) of each test compound. […]"}, "[2]": {"test_system": "re-epithelialization of keratinocytes, mouse skin wound model", "assay": "Mouse skin wound healing model, re-epithelialization of keratinocytes", "type": "in vivo", "conditions": "male BALB/c mice; 6 mm full-thickness wounds; applied once a day; assessed eight days after operation; FIG. 2", "experimental": "Wound healing model was prepared in accordance with the method described by Tsuboi, et al. (J. Dermatol., 19, 673–675 (1992)). After backs of male BALB/c mice were shaved, two full-thickness round wounds (6 mm diameter) were prepared on the back of each mouse using a punch biopsy instrument. In medicine-treated group, immediately after the operation, a test compound suspended in 0.01M phosphate-buffered saline containing 1.5% sodium carboxymethyl cellulose (vehicle) was applied to each wound in a volume of 50 μL/wound. From the following day, the compound was repeatedly applied to each wound once a day for 7 days. In the control group, vehicle solution only was applied in the same manner. Eight days after the operation, mice were sacrificed and skin tissues containing wound area were removed. The tissues were fixed with a 10% neutral buffer formalin solution for one day and embedded in paraffin according to the conventional method. The cross-sections were made perpendicularly to the anterior-posterior axis. Keratinocytes in the specimen were stained by immuno histochemical staining method with an anti-keratin antibody after removing paraffin. Measurements of wound size (mm) and re-epithelialization of keratinocytes (mm) were performed by using an image-analyzing software. Re-epithelialization rate(%) of keratinocytes was calculated as follows with regard to each animal. […]"}}}
{"smiles": "O=C(NO)[C@H]1[C@@H](O)[C@H](O)[C@@H](O)CN1S(=O)(=O)c1ccc(Oc2ccccc2)cc1", "note": "[Compound c, (2R,3R,4R,5S)-3,4,5-trihydroxy-1-(4′-phenoxybenzenesulfonyl)-piperidine-2-carboxylic Acid Hydroxamide]", "values": [{"measurement": "hyperplasia inhibitory activity (epidermal thickness)", "setting": "[1]", "value": "hyperplasia inhibitory activity"}, {"measurement": "re-epithelialization rate (%) of keratinocytes inhibitory activity", "setting": "[2]", "value": "inhibitory activity"}]}
